Reference: patent EP0429372A1, “2-Azolyl nicotinate derivatives as herbicides” (RHONE-POULENC AGROCHIMIE, priority 1989, dated 1991)
Like-named read-outs stand apart in the source and are kept apart here.

Columns and labels:
Type in all cases: in vivo
Ipomea purpurea = assay: Example B: post-emergence herbicidal application, pot test; conditions: 4000 g/ha, 576 h
Description: (§1) Dans des pots de 7 x 7 x 8 cm remplis de terre agricole légère, on sème un nombre de graines déterminé en fonction de l'espèce végétale et de la grosseur de la graine.
(§2) On recouvre ensuite les graines d'une couche de terre d'environ 3 mm d'épaisseur et on laisse germer la graine jusqu'à ce qu'elle donne naissance à une plantule au stade convenable. Le stade de traitement pour les graminées est le stade "deuxième feuille en formation ". Le stade de traitement pour les dicotylédones, est le stade "cotylédons étalés, première feuille vraie en développement".
(§3) Les pots sont alors traités par pulvérisation de bouillie en quantité correspondant à une dose volumique d'application de 500 l/ha et contenant la matière active à la concentration désirée.
(§4) La bouille a été préparée de la même manière qu'à l'exemple A.
(§5) Les pots traités sont ensuite placés dans des bacs destinés à recevoir l'eau d'arrosage, en subirrigation, et maintenus pendant 24 jours à température ambiante sous 70 % d'humidité relative.
(§6) Au bout de 24 jours, on mesure un pourcentage (D) de destruction du nombre de pieds dans le pot traité par rapport au nombre de plantes dans les pots non traités (témoin). On mesure, sur les plantes traitées restantes, le pourcentage de réduction de taille (RT) par rapport aux plantes témoin.
(§7) Le pourcentage du volume foliaire non détruit par le produit est donc donné par la formule : [formula]
(§8) Cette valeur A est transformée en notation de 0 à 5 selon l'échelle suivante :
(§9) Les résultats obtenus sont présentés après le tableau A pour des doses d'application de 4000 g/ha.

Echinochloa crusgalli = assay: as above; conditions: 4000 g/ha, 576 h
Description: as §1, §2, §3, §4, §5, §6, §7, §8, §9

Solanum nigrum [1] = assay: as above; conditions: 4000 g/ha, 576 h
Description: as §1, §2, §3, §4, §5, §6, §7, §8, §9

Sinapis alba [2] = assay: as above; conditions: 4000 g/ha, 576 h
Description: as §1, §2, §3, §4, §5, §6, §7, §8, §9

Digitaria sanguinalis = assay: as above; conditions: 4000 g/ha, 576 h
Description: as §1, §2, §3, §4, §5, §6, §7, §8, §9

Oryza sativa = assay: Example C: selectivity test in major crops, post-emergence application; conditions: crop (Riz), 24 days, score 0-5, 0 or 1 = selective; also: ranges in brackets are in %
Description: as §1
(§10) On recouvre ensuite les graines d'une couche de terre d'environ 3 mm d'épaisseur et on laisse germer la graine jusqu'à ce qu'elle donne naissance à une plantule au stade convenable. Le stade de traitement pour les graminées est le stade "deuxième feuille en formation". Le stade de traitement pour les dicotylédones, est le stade "cotylédons étalés, première feuille vraie en développement".
as §3
(§11) La bouillie a été préparée de la même manière qu'à l'exemple A.
as §5, §6
(§12) Le pourcentage de volume foliaire non détruit par le produit est donc donné par la formule : [formula]
as §8
(§13) Ainsi, un produit est jugé comme sélectif vis à vis de la culture lorsque la valeur A notée est de 0 ou 1.
(§14) Les résultats obtenus sont présentés dans l'exemple C pour des doses d'application comprises entre 0,5 et 4 kg de matière active par hectare selon les produits.

Sesbania exaltata = assay: as above; conditions: 576 h
Description: as §1, §10, §3, §11, §5, §6, §12, §8, §13, §14

Xanthium pennsylvanicum = assay: as above; conditions: 576 h
Description: as §1, §10, §3, §11, §5, §6, §12, §8, §13, §14

Solanum nigrum [3] = assay: as above; conditions: 576 h
Description: as §1, §10, §3, §11, §5, §6, §12, §8, §13, §14

Viola tricolor = assay: as above; conditions: 576 h
Description: as §1, §10, §3, §11, §5, §6, §12, §8, §13, §14

Triticum aestivum = assay: as above; conditions: crop (Blé), 24 days, score 0-5, 0 or 1 = selective; also: ranges in brackets are in %
Description: as §1, §10, §3, §11, §5, §6, §12, §8, §13, §14

Zea mays = assay: as above; conditions: crop (Maïs), 24 days, score 0-5, 0 or 1 = selective; also: ranges in brackets are in %
Description: as §1, §10, §3, §11, §5, §6, §12, §8, §13, §14

Ipomea pupurea = assay: as above; conditions: 576 h
Description: as §1, §10, §3, §11, §5, §6, §12, §8, §13, §14

Sinapis alba [4] = assay: as above; conditions: 4000 g/ha, 576 h
Description: as §1, §10, §3, §11, §5, §6, §12, §8, §13, §14

Chrysanthemum segetum = conditions: post-emergence, 576 h
Description: as §1, §10, §3, §11, §5, §6, §12, §8, §13, §14

Convolvulus arvensis = conditions: post-emergence, 576 h
Description: as §1, §10, §3, §11, §5, §6, §12, §8, §13, §14

Polygonum convolvulus = conditions: 576 h
Description: as §1, §10, §3, §11, §5, §6, §12, §8, §13, §14

Row | Compound | ACTIVITE DE POST-LEVEE IPO (Ipomea purpurea) | ACTIVITE DE POST-LEVEE ECH (Echinochloa crusgalli) | ACTIVITE DE POST-LEVEE SOL (Solanum nigrum [1]) | ACTIVITE DE POST-LEVEE SIN (Sinapis alba [2]) | ACTIVITE DE POST-LEVEE DIG (Digitaria sanguinalis) | ACTIVITE HERBICIDE DE POST LEVEE O R Y (Oryza sativa; dose 2 kg/ha) | ACTIVITE HERBICIDE DE POST LEVEE S E S (Sesbania exaltata; 2000 g/ha) | ACTIVITE HERBICIDE DE POST LEVEE X A N (Xanthium pennsylvanicum; 2000 g/ha) | ACTIVITE HERBICIDE DE POST LEVEE S O L (Solanum nigrum [3]; 2000 g/ha) | ACTIVITE HERBICIDE DE POST LEVEE V I O (Viola tricolor; 2000 g/ha) | ACTIVITE HERBICIDE DE POST LEVEE T R Z (Triticum aestivum; dose 2 kg/ha) | ACTIVITE HERBICIDE DE POST LEVEE Z E A (Zea mays; dose 2 kg/ha) | ACTIVITE HERBICIDE DE POST LEVEE I P O (Ipomea pupurea; 2000 g/ha) | also measured
1 | CN(C)S(=O)(=O)n1nc(-c2ccccc2)nc1-c1ncccc1C(=O)O [compound 6] | 4 (10 à 30) | 0 (90 à 100) | 5 (O à 10) | 5 (O à 10) | 0 (90 à 100) | 0 (90 à 100) | 5 (O à 10) | 4 (10 à 30) | 5 (O à 10) | 4 (10 à 30) | 0 (90 à 100) | 0 (90 à 100) | 5 (O à 10) | 
2 | CCOC(=O)c1cccnc1-c1nc(-c2ccccc2)nn1S(=O)(=O)N(C)C [compound 19] |  |  |  |  |  |  |  |  |  |  |  |  |  | ACTIVITE HERBICIDE DE POST LEVEE O R Y (Oryza sativa; dose 4 kg/ha): 0 (90 à 100); ACTIVITE HERBICIDE DE POST LEVEE S E S (Sesbania exaltata; 4000 g/ha): 5 (O à 10); ACTIVITE HERBICIDE DE POST LEVEE X A N (Xanthium pennsylvanicum; 4000 g/ha): 2 (50 à 70); ACTIVITE HERBICIDE DE POST LEVEE S O L (Solanum nigrum [3]; 4000 g/ha): 5 (O à 10); ACTIVITE HERBICIDE DE POST LEVEE S I N (Sinapis alba [4]): 5 (O à 10); ACTIVITE HERBICIDE DE POST LEVEE T R Z (Triticum aestivum; dose 4 kg/ha): 0 (90 à 100); ACTIVITE HERBICIDE DE POST LEVEE Z E A (Zea mays; dose 4 kg/ha): 0 (90 à 100); ACTIVITE HERBICIDE DE POST LEVEE I P O (Ipomea pupurea; 4000 g/ha): 4 (10 à 30)
3 | CN(C)S(=O)(=O)n1c(-c2ncccc2C(=O)O)nc2c(Cl)cccc21 [compound 79] |  |  |  |  |  | 0 (90 à 100) | 2 (50 à 70) | 1 (70 à 90) | 3 (30 à 50) | 1 (70 à 90) | 0 (90 à 100) | 0 (90 à 100) | 4 (10 à 30) | ACTIVITE HERBICIDE DE POST LEVEE C H Y (Chrysanthemum segetum; 2000 g/ha): 4 (10 à 30); ACTIVITE HERBICIDE DE POST LEVEE C O N (Convolvulus arvensis; 2000 g/ha): 4 (10 à 30); ACTIVITE HERBICIDE DE POST LEVEE P O L (Polygonum convolvulus; 2000 g/ha): 3 (30 à 50)
4 | CN(C)S(=O)(=O)n1c(-c2ncccc2C(=O)O)nc2cc(Cl)ccc21 [compound 84] | 3 (30 à 50) | 0 (90 à 100) | 5 (O à 10) | 5 (O à 10) | 0 (90 à 100) |  |  |  |  |  |  |  |  | ACTIVITE HERBICIDE DE POST LEVEE C H Y (Chrysanthemum segetum; 1000 g/ha): 5 (O à 10); ACTIVITE HERBICIDE DE POST LEVEE C O N (Convolvulus arvensis; 1000 g/ha): 5 (O à 10); ACTIVITE HERBICIDE DE POST LEVEE P O L (Polygonum convolvulus; 1000 g/ha): 4 (10 à 30); ACTIVITE HERBICIDE DE POST LEVEE O R Y (Oryza sativa; dose 1 kg/ha): 1 (70 à 90); ACTIVITE HERBICIDE DE POST LEVEE S E S (Sesbania exaltata; 1000 g/ha): 5 (O à 10); ACTIVITE HERBICIDE DE POST LEVEE X A N (Xanthium pennsylvanicum; 1000 g/ha): 3 (30 à 50); ACTIVITE HERBICIDE DE POST LEVEE S O L (Solanum nigrum [3]; 1000 g/ha): 5 (O à 10); ACTIVITE HERBICIDE DE POST LEVEE V I O (Viola tricolor; 1000 g/ha): 2 (50 à 70); ACTIVITE HERBICIDE DE POST LEVEE T R Z (Triticum aestivum; dose 1 kg/ha): 1 (70 à 90); ACTIVITE HERBICIDE DE POST LEVEE Z E A (Zea mays; dose 1 kg/ha): 1 (70 à 90); ACTIVITE HERBICIDE DE POST LEVEE I P O (Ipomea pupurea; 1000 g/ha): 4 (10 à 30)
